Data from ChEMBL document CHEMBL5209589, “Membrane potential based transport assay for SLC1A3 using HEK293 JumpIn SLC1A3 OE cells” (2022).

Molecular target: Excitatory amino acid transporter 1 (Homo sapiens, UniProt P43003)
Assay: Substrate uptake by the Excitatory Amino Acid Transporter 1 (EAAT1, SLC1A3) as assessed by the fluorescent FLIPR membrane potential dye in HEK-293 JumpIN-SLC1A3 cells (PubChem AID: 1745864)
Format: functional, cell-based, HEK293

Sequence of Excitatory amino acid transporter 1 (P43003 whole entry): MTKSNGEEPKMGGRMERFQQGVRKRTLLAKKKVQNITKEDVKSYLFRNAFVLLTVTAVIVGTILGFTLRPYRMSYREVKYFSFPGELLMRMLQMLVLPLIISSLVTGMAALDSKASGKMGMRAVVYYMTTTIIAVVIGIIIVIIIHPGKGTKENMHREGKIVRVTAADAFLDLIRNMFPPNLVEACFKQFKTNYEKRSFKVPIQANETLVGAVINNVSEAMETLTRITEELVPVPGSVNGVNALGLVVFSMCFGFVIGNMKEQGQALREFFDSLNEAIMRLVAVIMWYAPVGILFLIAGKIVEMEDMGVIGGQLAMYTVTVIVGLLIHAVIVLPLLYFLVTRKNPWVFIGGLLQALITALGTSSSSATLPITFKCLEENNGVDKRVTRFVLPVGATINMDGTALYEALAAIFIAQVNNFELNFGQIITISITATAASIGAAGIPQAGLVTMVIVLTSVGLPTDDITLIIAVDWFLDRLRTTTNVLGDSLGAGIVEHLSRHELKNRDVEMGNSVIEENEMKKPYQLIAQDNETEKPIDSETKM

Structure (SMILES)	EC50 [µM]
N[C@@H](CCC(=O)O)C(=O)O [GLUTAMIC ACID]	16
N[C@@H](CS)C(=O)O [CYSTEINE]	376
